The record followed here is article PMC5654414, “In vitro and in vivo comparative and competitive activity-based protein profiling of GH29 α-L-fucosidases” (Chemical Science, 2015).

The target of test [1] is T1, recombinant human FUCA1 (human lysosomal α-L-fucosidase) (Homo sapiens, UniProt P04066).
T1 construct: expressed in transfected cells; host or cells: COS-7
T1 sequence (P04066 32-466): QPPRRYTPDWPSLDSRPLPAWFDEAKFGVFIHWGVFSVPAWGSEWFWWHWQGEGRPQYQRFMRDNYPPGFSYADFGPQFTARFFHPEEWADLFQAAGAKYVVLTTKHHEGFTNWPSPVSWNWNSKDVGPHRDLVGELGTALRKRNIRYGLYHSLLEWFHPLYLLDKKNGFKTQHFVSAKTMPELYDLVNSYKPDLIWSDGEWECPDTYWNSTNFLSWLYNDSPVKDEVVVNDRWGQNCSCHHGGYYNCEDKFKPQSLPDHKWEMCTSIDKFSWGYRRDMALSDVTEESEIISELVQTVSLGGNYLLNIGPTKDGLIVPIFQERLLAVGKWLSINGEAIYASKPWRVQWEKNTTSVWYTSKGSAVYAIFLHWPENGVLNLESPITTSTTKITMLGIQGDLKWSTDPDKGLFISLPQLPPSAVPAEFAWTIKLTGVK
In words: In vitro inhibition of FUCA1 activity, 4-methylumbelliferyl-α-L-fucopyranoside substrate, lysates of COS-7 cells over-expressing enzyme. The class given is biochemical. As to the method:
Having the cyclophellitol aziridine inhibitors and probes in hand, we determined their inhibitory potency towards the human lysosomal α-L-fucosidase, FUCA1.
The enzymatic activity of α-L-fucosidase was assayed at 37 °C by incubating with 1.5 mM 4-methylumbelliferyl-α-L-fucopyranoside as substrate in 150 mM McIlvaine buffer, pH 4.5, supplemented with 0.1% (w/v) BSA. […] The reaction was quenched by adding excess NaOH–glycine (pH 10.6), after which fluorescence was measured with a fluorimeter LS55 (Perkin Elmer) using λEX 366 nm and λEM 445 nm.

The target of test [2] is T2, FUCA1 (recombinant human GH29 α-L-fucosidase per table title) (Homo sapiens, UniProt P04066).
T2 construct: endogenous in cells; host or cells: fibroblasts
T2 sequence (P04066 32-466): T1 sequence (P04066 32-466)
Put plainly: In situ inhibition of FUCA1 in living fibroblasts. The class given is cell-based.

Test [3] has as its target T3, FUCA1 (Homo sapiens, UniProt P04066).
T3 sequence (P04066 32-466): T1 sequence (P04066 32-466)
Put plainly: ABP pulldown from Gaucher spleen lysate and LC-MS/MS identification. Type of test: binding. Also on record: lysates of spleens from a healthy human individual and a patient suffering from Gaucher disease; from tissue; host or cells: human spleen (normal subject and type 1 Gaucher patient). Conditions: 10 μM probe, Gaucher spleen lysate. The method, then:
To further determine the specificity of the developed ABPs, we have analyzed the ABP-labeled proteins in a complex tissue homogenate. For this purpose, we incubated Gaucher spleen lysate with biotinylated ABP 3 or with DMSO only (control) or competitive ABP 3-labeling by first incubating with fluorescent ABP 1. Glycosylated proteins were then enriched via ConA, followed by affinity purification with streptavidin coated paramagnetic beads. The identity of biotinylated and ABP 3-labeled proteins was determined by on-bead digestion with trypsin, peptide analysis by LC-MS/MS and matching against the human UniProt database, using the Mascot search engine as previously reported.[14] […]
Gaucher spleen lysate (1 g) was cut with a sterile scalpel, mixed with 4 mL 25 mM potassium phosphate buffer (pH 6.5, supplemented with 0.1% (v/v) Triton X-100 and protease inhibitor cocktail (Roche)) and sonicated three times for 10 seconds at 100% strength and kept on ice. […] Lysate was then centrifuged for 10 min at 10 000 g, supernatant collected carefully, protein concentration determined and […] total protein was then incubated with either 0.1% (v/v) DMSO, ABP 1 or ABP 3, or firstly with 10 μM ABP 1 followed by 10 μM of ABP 3, each step taking 30 min at 37 °C, in a total volume of 1 mL McIlvaine buffer, pH 4.5. […]

The subject of test [4] is recombinant α-L-fucosidase from Bacteroides thetaiotaomicron gene 2970. Put plainly: Competitive ABPP in E. coli lysate overexpressing bacterial α-L-fucosidase, ABP 1 labeling. Type of test: binding. The method, then:
(§1) All pre-incubations and ABP labeling-reactions occurred for 30 min at 37 °C. Total lysates (50 μg), medium (500 μg) or purified protein preparations (5 μg) were labeled with 1 μM JJB256 1 or JJB244 2, dissolved in 150 mM McIlvaine buffer, pH 4.5, incubating for 30 min at 37 °C. For ABPP, protein preparations were pre-incubated with compounds 4 (100 μM), 6 (100 μM), 7–13 (1 or 5 mM, specified in the main text) prior to the addition of 100 nM fluorescent ABPs. Influence of pH on ABP labeling involved pre-incubation at pH 3–10 prior to addition of 100 nM ABP 1. Direct labeling of retaining β-glucosidases occurred at pH 5.0 in conjunction with 100 nM ABP JJB75. Samples were then denatured with 5× Laemmli buffer (50% (v/v) 1 M Tris–HCl, pH 6.8, 50% (v/v) 100% glycerol, 10% (w/v) DTT, 10% (w/v) SDS, 0.01% (w/v) bromophenol blue), boiled for 4 min at 100 °C, and separated by gel electrophoresis on 10% (w/v) SDS-PAGE gels running continuously at 90 V.[13],[14] Wet slab-gels were scanned on fluorescence using a Typhoon Variable Mode Imager (Amersham Biosciences) using λEX 488 nm and λEM 520 nm (band pass filter 40 nm) for green fluorescent JJB256 1 and λEX 532 nm and λEM 610 nM (band pass filter 30 nm) for red fluorescent JJB244 2 and JJB75.

The target of another test is T4, α-L-fucosidase (Homo sapiens, UniProt P04066).
T4 construct: lysates of spleens from a healthy human individual and a patient suffering from Gaucher disease; from tissue; host or cells: human spleen (normal subject and type 1 Gaucher patient)
T4 sequence (P04066 32-466): T1 sequence (P04066 32-466)
In words: Competitive ABPP in human spleen lysates (healthy and Gaucher), ABP 1 labeling. Type of test: binding. The source says: Subsequently, we exposed lysates of spleens from a healthy human individual and a patient suffering from Gaucher disease to ABP 1. […] The labeled band from human Gaucher spleen lysate is considerably more intense than the corresponding band in healthy human spleen, reflecting elevated α-L-fucosidase activity in the former. […] As before, labeling with ABP 1 was suppressed after pre-treatment with either N-benzoyl aziridine 4 or L-fuconojirimycin 6. To further ascertain that […] labels mammalian GH29 retaining α-L-fucosidases we performed a number of control experiments (ESI Fig. S2a ^†). Compound 1 labeled both FUCA1 and FUCA2 that were overexpressed in COS cells. Treatment of murine spleen lysates with 1 yielded a result essentially as observed for healthy human tissue (ESI Fig. S2b ^†).
All pre-incubations and ABP labeling-reactions occurred for 30 min at 37 °C. Total lysates (50 μg), medium (500 μg) or purified protein preparations (5 μg) were labeled with 1 μM JJB256 1 or JJB244 2, dissolved in 150 mM McIlvaine buffer, pH 4.5, incubating for 30 min at 37 °C. […] Wet slab-gels were scanned on fluorescence using a Typhoon Variable Mode Imager (Amersham Biosciences) using λEX 488 nm and λEM 520 nm (band pass filter 40 nm) for green fluorescent JJB256 1 and λEX 532 nm and λEM 610 nM (band pass filter 30 nm) for red fluorescent JJB244 2 and JJB75.

Test [5] concerns the target T3, FUCA1. Put plainly: Competitive ABPP on recombinant FUCA1 with ABP 1 labeling as readout. Type of test: binding. The conditions noted are these: competitive ABPP format. Also on record: expressed in transfected cells; host or cells: COS-7. The method, then: as §1

As to `COc1ccc(C2=[N+]3C(=C(CCCCc4cn(CCCCCCCC(=O)N5[C@@H]6[C@@H](C)[C@@H](O)[C@@H](O)[C@H](O)[C@@H]65)nn4)c4ccc(-c5ccc(OC)cc5)n4[B-]3(F)F)C=C2)cc1` [compound 2], the IC50 (in general, the concentration at which inhibition is half-maximal) was 8.7 ± 1.2 nM in test [1] and 158 ± 22 nM in test [2].
Take `C[C@H]1[C@@H](O)[C@@H](O)[C@H](O)[C@H]2[C@@H]1N2C(=O)CCCCCCCn1cc(CNC(=O)CCCCCNC(=O)CCCC[C@@H]2SC[C@@H]3NC(=O)N[C@@H]32)nn1` [compound 3]: the concentration for half-maximal inhibition (IC50) in test [1] amounted to 7.2 ± 1.1 nM. At FUCA1 [3], the “identification of FUCA1 after pull-down” value is “one of the top identified proteins”.
As to `C[C@H]1[C@@H](O)[C@@H](O)[C@H](O)[C@H]2[C@@H]1N2C(=O)c1ccccc1` [compound 4], in test [4] (pre-incubation with 100 μM), the “blocking of ABP 1 labeling of major 50 kD band” value was “blocked”. For the same compound, the IC50 in test [1] came to 372 ± 21.2 nM; in test [2], 515 ± 72.9 nM. The fold less active result in test [1] (compared to 5) was “about eight-fold”. Besides, the “suppression of ABP 1 labeling after pre-treatment” value on α-L-fucosidase is given as “suppressed”.
In the case of `CC(=O)N1[C@@H]2[C@@H](C)[C@@H](O)[C@@H](O)[C@H](O)[C@@H]21` [compound 5], the IC50 amounted to 46.8 ± 3.4 nM in test [1] and 77.9 ± 9.1 nM in test [2].
Take `C[C@@H]1NC[C@@H](O)[C@H](O)[C@@H]1O.Cl` [compound 6, 1-deoxy-L-fuconojirimycin, reference compound]: the “blocking of ABP 1 labeling of α-L-fucosidase” value on FUCA1 [5] was “able to inhibit FUCA1”. The “blocking of ABP 1 labeling of major 50 kD band” value in test [4] (pre-incubation with 5 mM) was “blocked”. Moreover, the “suppression of ABP 1 labeling after pre-treatment” value on α-L-fucosidase was “suppressed”.
On to `C[C@H]1[C@@H](O)[C@@H](O)[C@H](O)[C@H]2[C@@H]1N2C(=O)CCCCCCCN=[N+]=[N-]` [compound 23], for which the IC50 in test [1] came out at 8.7 ± 1.1 nM; in test [2], 65.4 ± 7.5 nM. Further, the “fold increase in enzyme inhibition” value in test [1] (comparing 5 with 23) was found to be 5 fold.
